Experimental data as given in patent publication US12077503B2, “Substituted cyclic amides and their use as herbicides” (FMC CORPORATION, priority 2015, dated 2024).

Assays:
Type in all cases: in vivo
corn (Zea mays) [1] = test: Test G Pre-Emergence Protocol; details: Zea mays, pre-emergence, 312 h, evaluated after 13 days; for plant injury at 15.625 g/ha: 15.625 g ai/ha; for plant injury at 15.625 g/ha / plant injury at 250 g/ha: read-out: Corn damage rating (100=total damage to plant; 0=no damage to plant); for plant injury at 62.5 g/ha: 62.5 g ai/ha, 100=total damage to plant, 0=no damage to plant, read-out: Corn damage rating; for plant injury at 250 g/ha: 250 g ai/ha
Summary of the method: (§1)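 Glasshouse pre-emergence test: soil-sown seeds, sprayed after 1 d at 15.625, 62.5 or 250 g/ha. Conditions 24/16° C day/night, 14 h light, 65% humidity, watering twice daily. Rating 13 d post-spray (100 = total damage).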

[2] = test system: velvetleaf (Abutilon theophrasti); test: Test G Pre-Emergence Protocol; details: Abutilon theophrasti, pre-emergence, 312 h, evaluated after 13 days; for pest or weed control at 15.625 g/ha: 15.625 g ai/ha; for pest or weed control at 15.625 g/ha / pest or weed control at 250 g/ha: read-out: Velvetleaf damage rating (100=total damage to plant; 0=no damage to plant); for pest or weed control at 62.5 g/ha: 62.5 g ai/ha, 100=total damage to plant, 0=no damage to plant, read-out: Velvetleaf damage rating; for pest or weed control at 250 g/ha: 250 g ai/ha
Summary of the method: as §1

[3] = test system: barnyardgrass (Echinochloa crus-galli); test: Test G Pre-Emergence Protocol; details: Echinochloa crus-galli, pre-emergence, 312 h, evaluated after 13 days; for pest or weed control at 15.625 g/ha: 15.625 g ai/ha; for pest or weed control at 15.625 g/ha / pest or weed control at 250 g/ha: read-out: Barnyardgrass damage rating (100=total damage to plant; 0=no damage to plant); for pest or weed control at 62.5 g/ha: 62.5 g ai/ha, 100=total damage to plant, 0=no damage to plant, read-out: Barnyardgrass damage rating; for pest or weed control at 250 g/ha: 250 g ai/ha
Summary of the method: as §1

[4] = test system: giant foxtail (Setaria faberi); test: Test G Pre-Emergence Protocol; details: Setaria faberi, pre-emergence, 312 h, evaluated after 13 days; for pest or weed control at 15.625 g/ha: 15.625 g ai/ha; for pest or weed control at 15.625 g/ha / pest or weed control at 250 g/ha: read-out: Foxtail, Giant damage rating (100=total damage to plant; 0=no damage to plant); for pest or weed control at 62.5 g/ha: 62.5 g ai/ha, 100=total damage to plant, 0=no damage to plant, read-out: Foxtail, Giant damage rating; for pest or weed control at 250 g/ha: 250 g ai/ha
Summary of the method: as §1

[5] = test system: ivy-leaved morning glory (Ipomoea hederacea); test: Test G Pre-Emergence Protocol; details: Ipomoea, pre-emergence, 312 h, evaluated after 13 days; for pest or weed control at 15.625 g/ha: 15.625 g ai/ha; for pest or weed control at 15.625 g/ha / pest or weed control at 250 g/ha: read-out: Morningglory, Ivy-leaved damage rating (100=total damage to plant; 0=no damage to plant); for pest or weed control at 62.5 g/ha: 62.5 g ai/ha, 100=total damage to plant, 0=no damage to plant, read-out: Morningglory, Ivy-leaved damage rating; for pest or weed control at 250 g/ha: 250 g ai/ha
Summary of the method: as §1

[6] = test system: redroot pigweed (Amaranthus retroflexus); test: Test G Pre-Emergence Protocol; details: Amaranthus retroflexus, pre-emergence, 312 h, evaluated after 13 days; for pest or weed control at 15.625 g/ha: 15.625 g ai/ha; for pest or weed control at 15.625 g/ha / pest or weed control at 250 g/ha: read-out: Pigweed, Redroot damage rating (100=total damage to plant; 0=no damage to plant); for pest or weed control at 62.5 g/ha: 62.5 g ai/ha, 100=total damage to plant, 0=no damage to plant, read-out: Pigweed, Redroot damage rating; for pest or weed control at 250 g/ha: 250 g ai/ha
Summary of the method: as §1

corn (Zea mays) [7] = test: Test G Post-Emergence Protocol; details: Zea mays, post-emergence, 312 h, read-out: Corn damage rating; for plant injury at 15.625 g/ha: 15.625 g ai/ha, evaluated after 13 days (100=total damage to plant; 0=no damage to plant); for plant injury at 62.5 g/ha: 62.5 g ai/ha; for plant injury at 62.5 g/ha / plant injury at 250 g/ha: evaluated after 13 days, 100=total damage to plant, 0=no damage to plant; for plant injury at 250 g/ha: 250 g ai/ha
Summary of the method: (§2)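 A glasshouse post-emergence test: 8-day-old plants sprayed at 15.625, 62.5 or 250 g/ha, then grown at 24/16 °C day/night with 14 h light and 65% humidity. Damage rated 13 days later, 0–100.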

[8] = test system: velvetleaf (Abutilon theophrasti); test: Test G Post-Emergence Protocol; details: Abutilon theophrasti, post-emergence, 312 h, read-out: Velvetleaf damage rating; for pest or weed control at 15.625 g/ha: 15.625 g ai/ha, evaluated after 13 days (100=total damage to plant; 0=no damage to plant); for pest or weed control at 62.5 g/ha: 62.5 g ai/ha; for pest or weed control at 62.5 g/ha / pest or weed control at 250 g/ha: evaluated after 13 days, 100=total damage to plant, 0=no damage to plant; for pest or weed control at 250 g/ha: 250 g ai/ha
Summary of the method: as §2

[9] = test system: barnyardgrass (Echinochloa crus-galli); test: Test G Post-Emergence Protocol; details: Echinochloa crus-galli, post-emergence, 312 h, read-out: Barnyardgrass damage rating; for pest or weed control at 15.625 g/ha: 15.625 g ai/ha, evaluated after 13 days (100=total damage to plant; 0=no damage to plant); for pest or weed control at 62.5 g/ha: 62.5 g ai/ha; for pest or weed control at 62.5 g/ha / pest or weed control at 250 g/ha: evaluated after 13 days, 100=total damage to plant, 0=no damage to plant; for pest or weed control at 250 g/ha: 250 g ai/ha
Summary of the method: as §2

[10] = test system: giant foxtail (Setaria faberi); test: Test G Post-Emergence Protocol; details: Setaria faberi, post-emergence, 312 h, read-out: Foxtail, Giant damage rating; for pest or weed control at 15.625 g/ha: 15.625 g ai/ha, evaluated after 13 days (100=total damage to plant; 0=no damage to plant); for pest or weed control at 62.5 g/ha: 62.5 g ai/ha; for pest or weed control at 62.5 g/ha / pest or weed control at 250 g/ha: evaluated after 13 days, 100=total damage to plant, 0=no damage to plant; for pest or weed control at 250 g/ha: 250 g ai/ha
Summary of the method: as §2

[11] = test system: ivy-leaved morning glory (Ipomoea hederacea); test: Test G Post-Emergence Protocol; details: Ipomoea, post-emergence, 312 h, read-out: Morningglory, Ivy-leaved damage rating; for pest or weed control at 15.625 g/ha: 15.625 g ai/ha, evaluated after 13 days (100=total damage to plant; 0=no damage to plant); for pest or weed control at 62.5 g/ha: 62.5 g ai/ha; for pest or weed control at 62.5 g/ha / pest or weed control at 250 g/ha: evaluated after 13 days, 100=total damage to plant, 0=no damage to plant; for pest or weed control at 250 g/ha: 250 g ai/ha
Summary of the method: as §2

[12] = test system: redroot pigweed (Amaranthus retroflexus); test: Test G Post-Emergence Protocol; details: Amaranthus retroflexus, post-emergence, 312 h, read-out: Pigweed, Redroot damage rating; for pest or weed control at 15.625 g/ha: 15.625 g ai/ha, evaluated after 13 days (100=total damage to plant; 0=no damage to plant); for pest or weed control at 62.5 g/ha: 62.5 g ai/ha; for pest or weed control at 62.5 g/ha / pest or weed control at 250 g/ha: evaluated after 13 days, 100=total damage to plant, 0=no damage to plant; for pest or weed control at 250 g/ha: 250 g ai/ha
Summary of the method: as §2

CCCOc1cc(C2CN(C)C(=O)C2C(=O)Nc2cccc(F)c2F)cc(C(F)(F)F)c1 (stereo not drawn) [Compound 1725]
plant injury at 15.625 g/ha (corn (Zea mays) [1]): 0%
plant injury at 62.5 g/ha (corn (Zea mays) [1]): 0%
plant injury at 250 g/ha (corn (Zea mays) [1]): 30%
pest or weed control at 15.625 g/ha [2]: 0%
pest or weed control at 62.5 g/ha [2]: 0%
pest or weed control at 250 g/ha [2]: 0%
pest or weed control at 15.625 g/ha [3]: 20%
pest or weed control at 62.5 g/ha [3]: 50%
pest or weed control at 250 g/ha [3]: 70%
pest or weed control at 15.625 g/ha [4]: 20%
pest or weed control at 62.5 g/ha [4]: 50%
pest or weed control at 250 g/ha [4]: 80%
pest or weed control at 15.625 g/ha [5]: 0%
pest or weed control at 62.5 g/ha [5]: 0%
pest or weed control at 250 g/ha [5]: 0%
pest or weed control at 15.625 g/ha [6]: 0%
pest or weed control at 62.5 g/ha [6]: 0%
pest or weed control at 250 g/ha [6]: 20%
plant injury at 15.625 g/ha (corn (Zea mays) [7]): 10%
plant injury at 62.5 g/ha (corn (Zea mays) [7]): 0%
plant injury at 250 g/ha (corn (Zea mays) [7]): 70%
pest or weed control at 15.625 g/ha [8]: 0%
pest or weed control at 62.5 g/ha [8]: 0%
pest or weed control at 250 g/ha [8]: 10%
pest or weed control at 15.625 g/ha [9]: 0%
pest or weed control at 62.5 g/ha [9]: 30%
pest or weed control at 250 g/ha [9]: 70%
pest or weed control at 15.625 g/ha [10]: 0%
pest or weed control at 62.5 g/ha [10]: 70%
pest or weed control at 250 g/ha [10]: 80%
pest or weed control at 15.625 g/ha [11]: 30%
pest or weed control at 62.5 g/ha [11]: 70%
pest or weed control at 250 g/ha [11]: 70%
pest or weed control at 15.625 g/ha [12]: 0%
pest or weed control at 62.5 g/ha [12]: 10%
pest or weed control at 250 g/ha [12]: 60%

CN1CCCC(NC(=O)[C@H]2C(=O)N(C)C[C@@H]2c2ccc(C(F)(F)F)cc2)C1=O (mixture of isomers) [Compound 1674]
plant injury at 15.625 g/ha (corn (Zea mays) [1]): 0%
plant injury at 62.5 g/ha (corn (Zea mays) [1]): 0%
plant injury at 250 g/ha (corn (Zea mays) [1]): 0%
pest or weed control at 15.625 g/ha [2]: 0%
pest or weed control at 62.5 g/ha [2]: 0%
pest or weed control at 250 g/ha [2]: 0%
pest or weed control at 15.625 g/ha [3]: 0%
pest or weed control at 62.5 g/ha [3]: 0%
pest or weed control at 250 g/ha [3]: 0%
pest or weed control at 15.625 g/ha [4]: 0%
pest or weed control at 62.5 g/ha [4]: 0%
pest or weed control at 250 g/ha [4]: 0%
pest or weed control at 15.625 g/ha [5]: 0%
pest or weed control at 62.5 g/ha [5]: 0%
pest or weed control at 250 g/ha [5]: 0%
pest or weed control at 15.625 g/ha [6]: 0%
pest or weed control at 62.5 g/ha [6]: 0%
pest or weed control at 250 g/ha [6]: 0%
plant injury at 15.625 g/ha (corn (Zea mays) [7]): 0%
plant injury at 62.5 g/ha (corn (Zea mays) [7]): 0%
plant injury at 250 g/ha (corn (Zea mays) [7]): 0%
pest or weed control at 15.625 g/ha [8]: 0%
pest or weed control at 62.5 g/ha [8]: 0%
pest or weed control at 250 g/ha [8]: 0%
pest or weed control at 15.625 g/ha [9]: 0%
pest or weed control at 62.5 g/ha [9]: 0%
pest or weed control at 250 g/ha [9]: 0%
pest or weed control at 15.625 g/ha [10]: 0%
pest or weed control at 62.5 g/ha [10]: 0%
pest or weed control at 250 g/ha [10]: 20%
pest or weed control at 15.625 g/ha [11]: 0%
pest or weed control at 62.5 g/ha [11]: 0%
pest or weed control at 250 g/ha [11]: 0%
pest or weed control at 15.625 g/ha [12]: 0%
pest or weed control at 62.5 g/ha [12]: 0%
pest or weed control at 250 g/ha [12]: 0%
